# Laboratory results published in patent US20240216519A1, “SMALL HYDROPHOBIC PROTEIN DRUG CONJUGATES AND USES THEREOF” (priority 2021, published 2024).
# Where no end group is shown, it is not given here.
# T1: GPR125 (ADGRA3) (Homo sapiens, UniProt Q8IWK6)
# T1 sequence (Q8IWK6 34-1321): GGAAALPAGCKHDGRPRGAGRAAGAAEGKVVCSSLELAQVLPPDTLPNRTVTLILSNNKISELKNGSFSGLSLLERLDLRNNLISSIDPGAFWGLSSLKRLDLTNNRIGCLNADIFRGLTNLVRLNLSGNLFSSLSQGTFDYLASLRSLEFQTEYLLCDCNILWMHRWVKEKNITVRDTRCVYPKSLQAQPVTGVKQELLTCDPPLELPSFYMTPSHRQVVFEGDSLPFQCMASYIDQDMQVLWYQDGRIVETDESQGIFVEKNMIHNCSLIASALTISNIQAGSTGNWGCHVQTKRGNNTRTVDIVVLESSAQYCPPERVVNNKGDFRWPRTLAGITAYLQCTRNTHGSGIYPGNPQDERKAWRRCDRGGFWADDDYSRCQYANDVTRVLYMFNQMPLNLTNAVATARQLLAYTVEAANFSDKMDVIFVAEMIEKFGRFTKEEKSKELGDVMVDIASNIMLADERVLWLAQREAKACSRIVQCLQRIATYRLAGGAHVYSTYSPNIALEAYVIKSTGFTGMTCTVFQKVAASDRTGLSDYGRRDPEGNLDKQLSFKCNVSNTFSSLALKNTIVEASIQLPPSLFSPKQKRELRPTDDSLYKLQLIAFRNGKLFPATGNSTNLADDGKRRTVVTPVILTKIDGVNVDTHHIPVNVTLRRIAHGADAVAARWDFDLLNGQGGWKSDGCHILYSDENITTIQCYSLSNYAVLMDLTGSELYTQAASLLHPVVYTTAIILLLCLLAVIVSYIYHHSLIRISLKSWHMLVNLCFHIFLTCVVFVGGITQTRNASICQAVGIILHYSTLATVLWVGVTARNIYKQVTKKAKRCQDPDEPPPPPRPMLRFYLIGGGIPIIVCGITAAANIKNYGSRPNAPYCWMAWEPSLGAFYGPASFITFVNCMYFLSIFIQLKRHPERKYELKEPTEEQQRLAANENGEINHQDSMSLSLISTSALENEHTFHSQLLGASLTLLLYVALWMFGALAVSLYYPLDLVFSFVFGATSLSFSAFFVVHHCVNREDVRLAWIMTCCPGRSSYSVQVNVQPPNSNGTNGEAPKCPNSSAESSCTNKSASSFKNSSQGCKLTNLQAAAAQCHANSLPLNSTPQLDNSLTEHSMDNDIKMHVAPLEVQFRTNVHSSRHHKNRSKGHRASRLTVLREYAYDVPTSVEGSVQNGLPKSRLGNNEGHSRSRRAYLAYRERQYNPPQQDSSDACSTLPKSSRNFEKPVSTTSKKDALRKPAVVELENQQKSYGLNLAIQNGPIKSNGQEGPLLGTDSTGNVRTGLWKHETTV
# T2: GPR125 (ADGRA3) in mouse choroid plexus (mouse, UniProt Q7TT36 28-1310)
# T2 construct: whole, on cells
# T2 sequence: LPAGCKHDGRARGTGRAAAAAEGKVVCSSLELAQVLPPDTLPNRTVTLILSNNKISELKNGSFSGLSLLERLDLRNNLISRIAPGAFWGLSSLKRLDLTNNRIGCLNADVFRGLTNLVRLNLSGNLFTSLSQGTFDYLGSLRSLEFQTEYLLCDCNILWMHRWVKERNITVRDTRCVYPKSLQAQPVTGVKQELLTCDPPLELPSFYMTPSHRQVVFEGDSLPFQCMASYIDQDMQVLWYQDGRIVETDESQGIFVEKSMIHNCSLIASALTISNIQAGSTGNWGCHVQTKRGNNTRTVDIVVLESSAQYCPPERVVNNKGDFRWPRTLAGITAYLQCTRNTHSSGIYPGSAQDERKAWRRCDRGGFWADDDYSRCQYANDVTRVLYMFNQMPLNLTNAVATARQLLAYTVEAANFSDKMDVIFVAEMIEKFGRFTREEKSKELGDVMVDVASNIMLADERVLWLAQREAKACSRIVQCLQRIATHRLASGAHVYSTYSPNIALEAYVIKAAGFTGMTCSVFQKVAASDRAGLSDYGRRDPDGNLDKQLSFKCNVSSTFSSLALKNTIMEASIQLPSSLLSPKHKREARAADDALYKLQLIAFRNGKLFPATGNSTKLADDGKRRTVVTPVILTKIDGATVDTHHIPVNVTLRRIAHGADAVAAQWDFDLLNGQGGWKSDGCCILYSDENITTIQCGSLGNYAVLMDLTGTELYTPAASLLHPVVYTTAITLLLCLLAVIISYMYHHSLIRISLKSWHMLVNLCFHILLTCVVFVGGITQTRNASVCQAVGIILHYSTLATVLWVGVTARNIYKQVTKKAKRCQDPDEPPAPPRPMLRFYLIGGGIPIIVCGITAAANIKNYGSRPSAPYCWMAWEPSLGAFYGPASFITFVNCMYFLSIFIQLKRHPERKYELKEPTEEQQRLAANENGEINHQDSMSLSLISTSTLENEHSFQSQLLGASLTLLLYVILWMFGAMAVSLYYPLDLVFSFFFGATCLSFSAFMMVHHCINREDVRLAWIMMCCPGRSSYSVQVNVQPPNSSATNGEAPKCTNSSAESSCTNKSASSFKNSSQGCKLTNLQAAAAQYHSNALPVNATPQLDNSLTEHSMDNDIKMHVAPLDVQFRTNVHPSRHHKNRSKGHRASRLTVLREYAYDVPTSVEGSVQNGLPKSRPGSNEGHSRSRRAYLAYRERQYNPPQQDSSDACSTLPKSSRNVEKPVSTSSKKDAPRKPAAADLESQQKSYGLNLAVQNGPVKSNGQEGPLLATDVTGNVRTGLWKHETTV
# B1: TAMRA labelled SH-protein (SEQ ID NO: 129) (other)
# chain: MPAIQPPLYLTFLLLILLYLIITLYVWIILTVTYKTAVRHAALYQRSFFHWSFDHSL
# modifications: also: TAMRA labelled
# notes: also called TAMRA-functionalized SH protein
# Tests used:
# [1] = Plasma and CSF concentrations after injection into vena cava (RIA GLP-1 assay); type: in vivo; conditions: rat, 10 min after i.v. injection
# Protocol: Male Sprague Dawley rats were purchased from Charles Rivers. Animals were anesthetized by hypnorm/dormicum, and restrained in a stereotactic instrument. […] Blood samples were collected prior to the injection of test compounds and straight after CSF aspiration.
# The assay buffer was 100 mM Tris buffer with pH 8.5 containing 1% (wt/vol) human serum albumin, 0.01 mM valine-pyrrolidide and 500 KIE aprotinin (final concentrations). […] Plasma and CSF concentrations were measured after dilution in assay buffer. Free and bound moieties were separated with plasma-coated charcoal.
# C57BL/6J mice [2] = test: Acute food intake in lean mice, s.c. (Example 10); type: in vivo, mouse
# Protocol: Female C57BL/6J mice were purchased from Charles Rivers. One week before study initiation the mice were single housed with free access to food and water. […] Thirty minutes prior peptide injection, all mice were administered subcutaneously with DDP-4 inhibitor Valine-pyrrolidide (1.5 mg/mouse). Food intake was measured after 1, 2, 4 and 14 hours (FIG. 14A-D).
# Results shown are combined data from five studies with an identical study design as described above. Between each study mice had at least one week washout period.
# [3] = test system: Diet induced obese C57BL/6NTac male mice; test: Acute food intake in diet induced obese mice, s.c. (Example 11); type: in vivo, mouse; conditions: 15 nmol/kg s.c., conjugate also vs GLP-1(7-36)
# Protocol: Diet induced obese C57BL/6NTac male mice were purchased from Taconic and continued on a high fat high sucrose diet with free access to water. One week after arrival, animals were double or single housed. […] Thirty minutes prior peptide injection, all mice were administered subcutaneously with DDP-4 inhibitor Valine-pyrrolidide (3 mg/mouse). Food intake was measured after 1, 2, 4 and 14 hours (FIG. 15A-D).
# C57BL/6J mice [4] = test: Acute food intake in lean mice, SH(2-11)-Exendin-4 (Example 12); type: in vivo, mouse; conditions: 15 nmol/kg s.c., conjugate also vs Exendin-4(1-39)
# Protocol: Female C57BL/6J mice were purchased from Charles Rivers. One week before study initiation the mice were single housed with free access to food and water. […] Food intake was measured after 1, 2, 4 and 14 hours (FIG. 16A-D).
# GPR125 (ADGRA3) [5] = target: T1, GPR125 (ADGRA3); test: xCELLigence impedance, MDA231 cells endogenously expressing GPR125; type: cell-based; conditions: first 30 minutes after stimulation
# Protocol: (§1) Once the cells are added to the E-plate they are allowed to adhere and proliferate for 18 hours during which the impedance is measured every 15 minutes generating the initial adhesion and growth curve. Upon stimulation the measurements are change to rapid detection every 15 seconds followed by every minute and every 5 minutes during the first hour after stimulation.
# GPR125 (ADGRA3) [6] = target: T1, GPR125 (ADGRA3); test: xCELLigence impedance, HEK293 Flp-In T-rex cells with full length GPR125; type: cell-based; design: HEK293 Flp-In T-rex cells stably transfected with full length (FL) GPR125; expressed in transfected cells; host or cells: HEK293 Flp-In T-rex cells; conditions: HEK293 Flp-In T-rex cells stably transfected with full length (FL) GPR125, first 30 minutes after stimulation
# Protocol: as §1
# [7] = target: T2, GPR125 (ADGRA3) in mouse choroid plexus; test: fluorescence microscopy of mouse brain cryosections, WT against GPR125 KO (KO stained only at 22 µM and 11 µM)
molecule,measurement,setting,value
"CC[C@H](C)[C@H](NC(=O)[C@H](Cc1ccccc1)NC(=O)[C@H](CCC(=O)O)NC(=O)[C@H](CCCCN)NC(=O)[C@H](C)NC(=O)[C@H](C)NC(=O)[C@H](CCC(N)=O)NC(=O)CNC(=O)[C@H](CCC(=O)O)NC(=O)[C@H](CC(C)C)NC(=O)[C@H](Cc1ccc(O)cc1)NC(=O)[C@H](CO)NC(=O)[C@H](CO)NC(=O)[C@@H](NC(=O)[C@H](CC(=O)O)NC(=O)[C@H](CO)NC(=O)[C@@H](NC(=O)[C@H](Cc1ccccc1)NC(=O)[C@@H](NC(=O)CNC(=O)[C@H](CCC(=O)O)NC(=O)[C@H](C)NC(=O)[C@@H](N)Cc1c[nH]cn1)[C@@H](C)O)[C@@H](C)O)C(C)C)C(=O)N[C@@H](C)C(=O)N[C@@H](Cc1c[nH]c2ccccc12)C(=O)N[C@@H](CC(C)C)C(=O)N[C@H](C(=O)N[C@@H](CCCCN)C(=O)NCC(=O)N[C@@H](CCCNC(=N)N)C(N)=O)C(C)C [GLP-1(7-36), GLP-1 (7-36) amide, reference compound]",detectable in CSF by RIA GLP-1 assay,[1],detectable
same,food intake compared to vehicle,"C57BL/6J mice [2]; 15 nmol/kg s.c., after 1 hour",did not show a significant decrease
same,food intake compared to vehicle,"C57BL/6J mice [2]; 15 nmol/kg s.c., after 2 hours",did not show a significant decrease
same,food intake compared to vehicle,"C57BL/6J mice [2]; 15 nmol/kg s.c., after 4 hours",did not show a significant decrease
same,food intake compared to vehicle,"C57BL/6J mice [2]; 15 nmol/kg s.c., after 14 hours",did not show a significant decrease
same,food intake compared to vehicle,"C57BL/6J mice [2]; 30 nmol/kg s.c., after 1 hour",decreased their food intake significantly
same,food intake compared to vehicle,"C57BL/6J mice [2]; 30 nmol/kg s.c., after 2 hours",decreased their food intake significantly
same,food intake compared to vehicle,"C57BL/6J mice [2]; 30 nmol/kg s.c., after 4 hours",less significant
same,food intake compared to vehicle,[3]; after 1 hour,decreased food intake
same,food intake compared to vehicle,[3]; after 2 hours,decreased food intake
same,food intake compared to vehicle,[3]; after 4 hours,not present
Exendin-4 [Exendin-4(1-39)],food intake compared to vehicle,C57BL/6J mice [4]; after 1 hour,decreased food intake
same,food intake compared to vehicle,C57BL/6J mice [4]; after 2 hours,decreased food intake
same,food intake compared to vehicle,C57BL/6J mice [4]; after 4 hours,less significant
"SH1-9: MPAIQPPLY, MuV SH protein fragment (1-9) (Genotype G Genbank ID QFO38283.1 1-9)","GPR125 signaling, area under the curve (AUC) of impedance",GPR125 (ADGRA3) [5],affected GPR125 signaling
same,"GPR125 signaling, area under the curve (AUC) of impedance",GPR125 (ADGRA3) [6],affected GPR125 signaling
SH1-57: whole mumps virus SH protein 1-57 (MPAIQPPLYLTFLLLILLYLIITLYVWIILTITYKTAVRHAALYQRSFFRWSFDHSL; Genotype G Genbank ID QFO38283.1 1-57; (1)..(57) Genotype G Genbank ID QFO38283.1 1-57),"GPR125 signaling, area under the curve (AUC) of impedance",GPR125 (ADGRA3) [5],affected GPR125 signaling
same,"GPR125 signaling, area under the curve (AUC) of impedance",GPR125 (ADGRA3) [6],affected GPR125 signaling
"SH2-9: PAIQPPLY, MuV SH protein fragment (2-9) (Genotype G Genbank ID QFO38283.1 2-9)","GPR125 signaling, area under the curve (AUC) of impedance",GPR125 (ADGRA3) [5],affected GPR125 signaling
same,"GPR125 signaling, area under the curve (AUC) of impedance",GPR125 (ADGRA3) [6],affected GPR125 signaling
B1,binding result,[7],binds
